Measured values from patent US9511341B2, “Method for preparing acetazolamide sodium powder” (SCI Pharmtech, Inc., priority 2013, dated 2016).

Columns and labels:
[1] = Impurity D (hydrolysis product) in spray dried powder by USP HPLC method; assay type: physicochemical; settings: air vs N2 as drying gas, judged by difference of impurity D
Experimental: In the developed spray drying process, the spray dryer was initiated in the preferred conditions (such as temperature and flow rate of the heated gas, and pneumatic pressure). In the meantime, an acetazolamide sodium solution was prepared by dispersing the acetazolamide powder into water in a flask inerted with N2 and then mixing the acetazolamide suspension with sodium hydroxide solution. After stirring for 15 min, an acetazolamide sodium solution was obtained and pumped into the spray dryer to proceed the drying process. During the drying process, the acetazolamide sodium solution was fed and atomized into mist by a two-fluid nozzle, and then the water was rapidly vaporized and accompanied with the nucleation of acetazolamide sodium particles in the gas flow of drying chamber. The formed particles were immediately carried into the cyclone, in which the separation of gas-solid was performed. The uncollected particles were recovered by the wet scrubber connected to the exit of cyclone. Finally, the acetazolamide sodium powder in the collector was examined by a halogen moisture analyzer and an analytical HPLC method specified in the current USP monograph of acetazolamide for injection.
In Example 2, the amount of impurity D in the acetazolamide free base was about 0.098-0.110 wt %. […]

[2] = cited from earlier work

| Structure (SMILES) | Oxygen sensitivity during spray drying [1] | Solubility in water [2] |
| --- | --- | --- |
| CC(=O)Nc1nnc(S(N)(=O)=O)s1 [acetazolamide sodium powder, Acetazolamide sodium] | not oxygen-sensitive | easily dissolves in water |
| CC(=O)Nc1nnc(S(N)(=O)=O)s1 [acetazolamide] | – | extremely low solubility in water |
